Assay results: US20200163913A1 (Shanghai Huali Biomedical Co., Ltd., priority 2017, published 2020)

system: human cervical cancer cell HeLa; assay: CCK-8 cell proliferation inhibition, HeLa; format: cell-based; settings: Homo sapiens, HeLa, 72 h, CCK-8, 72 h; read-out: IC50 Hela
Protocol: (§1) Take more than 90% of live cells for experiments. Cell proliferation inhibition test uses EnoGeneCell™ Counting Kit-8 (CCK-8) cell viability detection kit. Cells are digested and counted to make a cell suspension with a concentration of 1×10^5 cells/mL, 100 μL of cell suspension (1×10^4 cells per well) was added to each well of a 96-well plate; Incubate in a 5% CO2 incubator for 24 hours; add 100 μL of the corresponding drug-containing culture medium to each well, and set a negative control group, a vehicle control group, and a positive control group, with 5 replicates in each group; place the 96-well plate at 37° C.

| SMILES | IC50 [µM] |
| --- | --- |
| COc1ccc(/C=C\c2cc(OC)c(OC)c(OC)c2)cc1NS(N)(=O)=O [Compound A5-1, (Z)-3,4,5-trimethoxy-4′-methoxy-3′-aminosulfamate stilbene] | 0.272 |
| COc1ccc(/C=C/c2cc(OC)c(OC)c(OC)c2)cc1NS(N)(=O)=O [Compound A5-2, (E)-3,4,5-trimethoxy-4′-methoxy-3′-aminosulfamate stilbene] | 0.38 |
| COc1ccc(CCc2cc(OC)c(OC)c(OC)c2)cc1NS(N)(=O)=O [Compound A5-3, 3,4,5-trimethoxy-4′-methoxy-3′-aminosulfamate diphenylethane] | 2.93 |
| COc1ccc(CCc2cc(OC)c(OC)c(OC)c2)cc1O [Erianin, 3,4,5-trimethoxy-3′-hydroxy-4′-methoxydiphenylethane, reference compound] | 0.207 |

system: human lung cancer cell A549; assay: CCK-8 cell proliferation inhibition, A549; format: cell-based; settings: A549, CCK-8, 72 h, read-out: IC50 A549
Protocol: as §1

| SMILES | IC50 [µM] |
| --- | --- |
| COc1ccc(/C=C\c2cc(OC)c(OC)c(OC)c2)cc1NS(N)(=O)=O [Compound A5-1, (Z)-3,4,5-trimethoxy-4′-methoxy-3′-aminosulfamate stilbene] | 0.299 |
| COc1ccc(/C=C/c2cc(OC)c(OC)c(OC)c2)cc1NS(N)(=O)=O [Compound A5-2, (E)-3,4,5-trimethoxy-4′-methoxy-3′-aminosulfamate stilbene] | 7.42 |
| COc1ccc(CCc2cc(OC)c(OC)c(OC)c2)cc1NS(N)(=O)=O [Compound A5-3, 3,4,5-trimethoxy-4′-methoxy-3′-aminosulfamate diphenylethane] | 12 |
| COc1ccc(CCc2cc(OC)c(OC)c(OC)c2)cc1O [Erianin, 3,4,5-trimethoxy-3′-hydroxy-4′-methoxydiphenylethane, reference compound] | 0.22 |

system: human colon cancer cell HCT-116; assay: CCK-8 cell proliferation inhibition, HCT-116; format: cell-based; settings: Homo sapiens, HCT-116, 72 h, CCK-8, 72 h; read-out: IC50 HTC116
Protocol: as §1

| SMILES | IC50 [µM] |
| --- | --- |
| COc1ccc(/C=C\c2cc(OC)c(OC)c(OC)c2)cc1NS(N)(=O)=O [Compound A5-1, (Z)-3,4,5-trimethoxy-4′-methoxy-3′-aminosulfamate stilbene] | 3.29 |
| COc1ccc(/C=C/c2cc(OC)c(OC)c(OC)c2)cc1NS(N)(=O)=O [Compound A5-2, (E)-3,4,5-trimethoxy-4′-methoxy-3′-aminosulfamate stilbene] | 8.64 |
| COc1ccc(CCc2cc(OC)c(OC)c(OC)c2)cc1NS(N)(=O)=O [Compound A5-3, 3,4,5-trimethoxy-4′-methoxy-3′-aminosulfamate diphenylethane] | 30.6 |
| COc1ccc(CCc2cc(OC)c(OC)c(OC)c2)cc1O [Erianin, 3,4,5-trimethoxy-3′-hydroxy-4′-methoxydiphenylethane, reference compound] | 6.29 |

system: human liver cancer cell HepG2; assay: CCK-8 cell proliferation inhibition, HepG2; format: cell-based; settings: Homo sapiens, HepG2, 72 h, CCK-8, 72 h; read-out: IC50 HepG2
Protocol: as §1

| SMILES | IC50 [µM] |
| --- | --- |
| COc1ccc(/C=C\c2cc(OC)c(OC)c(OC)c2)cc1NS(N)(=O)=O [Compound A5-1, (Z)-3,4,5-trimethoxy-4′-methoxy-3′-aminosulfamate stilbene] | 0.752 |
| COc1ccc(/C=C/c2cc(OC)c(OC)c(OC)c2)cc1NS(N)(=O)=O [Compound A5-2, (E)-3,4,5-trimethoxy-4′-methoxy-3′-aminosulfamate stilbene] | 7.53 |
| COc1ccc(CCc2cc(OC)c(OC)c(OC)c2)cc1NS(N)(=O)=O [Compound A5-3, 3,4,5-trimethoxy-4′-methoxy-3′-aminosulfamate diphenylethane] | 8.1 |
| COc1ccc(CCc2cc(OC)c(OC)c(OC)c2)cc1O [Erianin, 3,4,5-trimethoxy-3′-hydroxy-4′-methoxydiphenylethane, reference compound] | 0.237 |

system: human gastric cancer cell MKN45; assay: CCK-8 cell proliferation inhibition, MKN45; format: cell-based; settings: MKN-45, 72 h, CCK-8, 72 h, read-out: IC50 MKN45
Protocol: as §1

| SMILES | IC50 [µM] |
| --- | --- |
| COc1ccc(/C=C\c2cc(OC)c(OC)c(OC)c2)cc1NS(N)(=O)=O [Compound A5-1, (Z)-3,4,5-trimethoxy-4′-methoxy-3′-aminosulfamate stilbene] | 0.5 |
| COc1ccc(/C=C/c2cc(OC)c(OC)c(OC)c2)cc1NS(N)(=O)=O [Compound A5-2, (E)-3,4,5-trimethoxy-4′-methoxy-3′-aminosulfamate stilbene] | 6.19 |
| COc1ccc(CCc2cc(OC)c(OC)c(OC)c2)cc1NS(N)(=O)=O [Compound A5-3, 3,4,5-trimethoxy-4′-methoxy-3′-aminosulfamate diphenylethane] | 8.21 |
| COc1ccc(CCc2cc(OC)c(OC)c(OC)c2)cc1O [Erianin, 3,4,5-trimethoxy-3′-hydroxy-4′-methoxydiphenylethane, reference compound] | 0.425 |

system: human gastric cancer cell MGC-803; assay: CCK-8 cell proliferation inhibition, MGC-803; format: cell-based; settings: MGC-803, 72 h, CCK-8, 72 h, read-out: IC50 MGC803
Protocol: as §1

| SMILES | IC50 [µM] |
| --- | --- |
| COc1ccc(/C=C\c2cc(OC)c(OC)c(OC)c2)cc1NS(N)(=O)=O [Compound A5-1, (Z)-3,4,5-trimethoxy-4′-methoxy-3′-aminosulfamate stilbene] | 9.56 |
| COc1ccc(/C=C/c2cc(OC)c(OC)c(OC)c2)cc1NS(N)(=O)=O [Compound A5-2, (E)-3,4,5-trimethoxy-4′-methoxy-3′-aminosulfamate stilbene] | 18.9 |
| COc1ccc(CCc2cc(OC)c(OC)c(OC)c2)cc1NS(N)(=O)=O [Compound A5-3, 3,4,5-trimethoxy-4′-methoxy-3′-aminosulfamate diphenylethane] | 73.9 |
| COc1ccc(CCc2cc(OC)c(OC)c(OC)c2)cc1O [Erianin, 3,4,5-trimethoxy-3′-hydroxy-4′-methoxydiphenylethane, reference compound] | 0.449 |

system: not given; assay: not given; settings: not given

| SMILES | melting point [°C] |
| --- | --- |
| COc1ccc(/C=C\c2cc(OC)c(OC)c(OC)c2)cc1NS(N)(=O)=O [Compound A5-1, (Z)-3,4,5-trimethoxy-4′-methoxy-3′-aminosulfamate stilbene] | 143.3 to 146.7 |
| COc1ccc(/C=C/c2cc(OC)c(OC)c(OC)c2)cc1NS(N)(=O)=O [Compound A5-2, (E)-3,4,5-trimethoxy-4′-methoxy-3′-aminosulfamate stilbene] | 157.9 to 161.1 |
| COc1ccc(CCc2cc(OC)c(OC)c(OC)c2)cc1NS(N)(=O)=O [Compound A5-3, 3,4,5-trimethoxy-4′-methoxy-3′-aminosulfamate diphenylethane] | 122.5 to 126.5 |
